Test results: US6423376B1, “Tartaric acid diesters as biodegradable surfactants” (Air Products and Chemicals, Inc., priority 2000, dated 2002)
Where a name gives a salt, the structure may show the parent alone.

Experiments:
[1] = Dynamic surface tension of aqueous solutions, maximum bubble pressure method; format: physicochemical; conditions: for limiting γ (0.1 b/s) / limiting γ (1 b/s) / limiting γ (6 b/s) / limiting γ (20 b/s): lowest surface tension in water; for pC20: negative logarithm of molar concentration giving 52.1 dyne/cm at 0.1 b/s; for decrease in the limiting surface tension: in comparison to dipentyl-L-tartrate
Description: where R1 and R2 are independently a C4 to C6 alkyl group, but preferably are the same; provided that when the water-based composition is an ink, R1 and R2 are independently a C5 or C6 alkyl group. […] The maximum-bubble-pressure method of measuring surface tension is described in Langmuir 1986, 2, 428-432, which is incorporated by reference.
In the following Examples dynamic surface tension data were obtained for aqueous solutions of various compounds using the maximum bubble pressure method at bubble rates from 0.1 bubbles/second (b/s) to 20 b/s. […] In practical terms, high bubble rates correspond to high printing speeds in lithographic printing, high spray or roller velocities in coating applications, and rapid application rates for agricultural products.
Dynamic surface tension data were obtained for a 0.1 wt % aqueous solution of the 9.5 mole ethoxylate of nonylphenol using the maximum bubble pressure method at bubble rates from 0.1 bubbles/second (b/s) to 20 b/s.
(§1) Solutions of the materials of Examples 1-12 in distilled water were prepared. […] The pC20 value is defined as the negative logarithm of the molar concentration of surfactant required to decrease the surface tension of an aqueous solution to 52.1 dyne/cm, that is, 20 dyne/cm below that of pure water when the measurement is performed at 0.1 b/s. This value is a measure of the efficiency of a surfactant. […] In addition, the relative efficiency of surfactants can be obtained by comparing surface tension reduction of solutions containing the same amount of different surfactants. Such data is given for 0.1 wt % solutions of the tartrates at 1.0 and 6.0 bubbles/second (b/s). The solubility limit was determined by intersection of the linear portion of a surface tension/In concentration curve with the limiting surface tension as is described in many textbooks. The limiting surface tensions at 0.1, 1, 6 and 20 b/s represent the lowest surface tensions in water which can be achieved at the given surface creation rates for a given surfactant regardless of the amount of surfactant used and is used to evaluate the effectiveness of a surfactant. These values give information about the relative ability to a surfactant to reduce surface defects under near-equilibrium conditions (0.1 b/s) through very dynamic conditions (20 b/s). Lower surface tensions would allow the elimination of defects upon application of a formulation onto lower energy surfaces.

[2] = Solubility limit in water from surface tension/ln concentration curve; format: physicochemical; conditions: in distilled water
Method: as §1

[3] = Foam test based upon ASTM D 1173-53; format: physicochemical; conditions: 0.1 wt % solution
Description: The foaming properties of a 0.1 wt % solution of the comparative example (nonylphenol 9.5 mole ethoxylate) and various dialkyltartrates (diisopropyl-(D)-tartrate, dibutyl-L-tartrate. diisobutyl-DL-tartrate, di-sec-butyl-DL-tartrate, dipentyl-DL-tartrate, diisoamyl-DL-tartrate, di-(2-methyl-butyl)-DL-tartrate, dineopentyl-DL-tartrate, dihexyl-DL-tartrate, di-(4-methyl-2-pentyl)-DL-tartrate, dibenzyl-DL-tartrate and di-(2-ethyl-hexyl)-DL-tartrate) were examined using a procedure based upon ASTM D 1173-53. In this test, a 0.1 wt % solution of the surfactant is added from an elevated foam pipette to a foam receiver containing the same solution. The foam height is measured at the completion of the addition (“Initial Foam Height”) and the time required for the foam to dissipate at the air-liquid interface (“Time to 0 Foam”) is recorded. This test provides a comparison between the foaming characteristics of various surfactants. In general, in coatings, inks, adhesives and agricultural formulations, foam is undesirable because is complicates handling and can lead to coating and print defects, and to inefficient application of agricultural materials.

Molecule | γ (0.1 wt % solution) (1 b/s) ([1]; 1 b/s) | γ (0.1 wt % solution) (6 b/s) ([1]; 6 b/s) | limiting γ (0.1 b/s) ([1]; 0.1 b/s) | limiting γ (1 b/s) ([1]; 1 b/s) | limiting γ (6 b/s) ([1]; 6 b/s) | limiting γ (20 b/s) ([1]; 20 b/s) | pC20 [1] | solubility limit [2] | initial foam [3] | time to zero foam [3] | time to zero foam ([3]; unit not given) | further results
O=C(OCc1ccccc1)C(O)C(O)C(=O)OCc1ccccc1 (racemic) [Example 11, Dibenzyl-DL-tartrate] | 67.8 Dyne/cm | 70.0 Dyne/cm | 64.0 Dyne/cm | 68.1 Dyne/cm | 69.8 Dyne/cm | 72.5 Dyne/cm | 1.0 | 0.05 Weight % | 1.3 cm | 0.1 s |  | 
CC(C)CC(C)OC(=O)C(O)C(O)C(=O)OC(C)CC(C)C (racemic) [Example 10, Di(4-methyl-2-pentyl)-DL-tartrate] | 42.2 Dyne/cm | 46.8 Dyne/cm | 41.3 Dyne/cm | 49.9 Dyne/cm | 56.1 Dyne/cm | 68.2 Dyne/cm | 3.7 | 0.02 Weight % | 0.8 cm | 0.3 s |  | 
CCCCCOC(=O)C(O)C(O)C(=O)OCCCCC (racemic) [Example 5, Dipentyl-DL-tartrate] | 36.8 Dyne/cm | 37.8 Dyne/cm | 35.9 Dyne/cm | 36.8 Dyne/cm | 37.8 Dyne/cm | 41.6 Dyne/cm | 3.3 | 0.1 Weight % | 0 cm |  | 0 | 
CC(C)(C)COC(=O)C(O)C(O)C(=O)OCC(C)(C)C (racemic) [Example 8, Dineopentyl-DL-tartrate] | 38.7 Dyne/cm | 39.8 Dyne/cm | 35.1 Dyne/cm | 35.5 Dyne/cm | 36.1 Dyne/cm | 38.4 Dyne/cm | 3.5 | 0.2 Weight % | 0 cm |  | 0 | decrease in the limiting surface tension ([1]; 20 b/s): 3.2 dyne/cm
CCCCCCOC(=O)C(O)C(O)C(=O)OCCCCCC (racemic) [Example 9, Dihexyl-DL-tartrate] | 59.0 Dyne/cm | 65.9 Dyne/cm | 40.5 Dyne/cm | 59.0 Dyne/cm | 65.9 Dyne/cm | 70.0 Dyne/cm | 3.8 | 0.01 Weight % | 1.3 cm | 0.1 s |  | 
CCC(C)COC(=O)C(O)C(O)C(=O)OCC(C)CC (racemic) [Example 7, Di(2-methyl-butyl)-DL-tartrate] | 39.0 Dyne/cm | 39.8 Dyne/cm | 35.6 Dyne/cm | 36.0 Dyne/cm | 36.0 Dyne/cm | 38.5 Dyne/cm | 3.2 | 0.1 Weight % | 0 cm |  | 0 | 
CC(C)COC(=O)C(O)C(O)C(=O)OCC(C)C (racemic) [Example 3, Diisobutyl-DL-tartrate] | 50.6 Dyne/cm | 51.4 Dyne/cm | 38.7 Dyne/cm | 39.3 Dyne/cm | 39.8 Dyne/cm | 40.8 Dyne/cm | 2.6 | 0.7 Weight % | 0.5 cm | 0.3 s |  | 
CCCCC(CC)COC(=O)C(O)C(O)C(=O)OCC(CC)CCCC (racemic) [Example 12, Di(2-ethylhexyl)-DL-tartrate] | 69.8 Dyne/cm | 70.5 Dyne/cm | 66.7 Dyne/cm | 69.8 Dyne/cm | 70.5 Dyne/cm | 71.3 Dyne/cm | 1.6 | 0.06 Weight % | 0 cm |  | 0 | limiting γ (0.1 b/s) at 5 wt. % ([1]; 5 wt. %, cloudy mixture, 0.1 b/s): 38.5 dyne/cm; limiting γ (1 b/s) at 5 wt. % ([1]; 5 wt. %, cloudy mixture, 1 b/s): 40.3 dyne/cm; limiting γ (6.0 b/s) at 5 wt. % ([1]; 5 wt. %, cloudy mixture, 6.0 b/s): 41.2 dyne/cm; limiting γ (20 b/s) at 5 wt. % ([1]; 5 wt. %, cloudy mixture, 20 b/s): 44.8 dyne/cm
CCCCOC(=O)C(O)C(O)C(=O)OCCCC (racemic) [Example 2, Dibutyl-L-tartrate] |  |  |  |  |  |  |  | 1.1 Weight % |  |  |  | 
9.5 mole ethoxylate of nonylphenol [reference compound] |  |  |  |  |  |  |  |  | 4.5 cm | >300 s |  | Dynamic Surface Tension (0.1 b/s) ([1]; 0.1 wt % aqueous solution, 0.1 b/s): 33.2 dyne/cm; Dynamic Surface Tension (1 b/s) ([1]; 0.1 wt % aqueous solution, 1 b/s): 36.7 dyne/cm; Dynamic Surface Tension (6 b/s) ([1]; 0.1 wt % aqueous solution, 6 b/s): 44.3 dyne/cm; Dynamic Surface Tension (15 b/s) ([1]; 0.1 wt % aqueous solution, 15 b/s): 52.8 dyne/cm; Dynamic Surface Tension (20 b/s) ([1]; 0.1 wt % aqueous solution, 20 b/s): 56.2 dyne/cm
CC(C)OC(=O)C(O)C(O)C(=O)OC(C)C [Example 1, Diisopropyl-D-tartrate] |  |  |  |  |  |  |  | >5% Weight % |  |  |  | 
CC(C)(C)COC(=O)C(O)C(O)C(=O)OCC(C)(C)C (racemic) (as salt: tartrate) [Example 8, Dineopentyl-DL-tartrate] |  |  |  |  |  |  |  |  |  |  |  | melting point: 75 °C
CCC(C)OC(=O)C(O)C(O)C(=O)OC(C)CC (racemic) [Example 4, Di-sec-butyl-DL-tartrate] | 52.2 Dyne/cm | 53.2 Dyne/cm | 35.1 Dyne/cm | 35.0 Dyne/cm | 35.0 Dyne/cm | 36.0 Dyne/cm | 2.5 | 1.7 Weight % | 1.7 cm | 0.4 s |  | 
CC(C)CCOC(=O)C(O)C(O)C(=O)OCCC(C)C (racemic) [Example 6, Diisoamyl-DL-tartrate] | 35.4 Dyne/cm | 36.7 Dyne/cm | 34.9 Dyne/cm | 35.7 Dyne/cm | 37.2 Dyne/cm | 40.3 Dyne/cm | 3.7 | 0.1 Weight % | 0 cm |  | 0 | decrease in the limiting surface tension ([1]; 20 b/s): 1.3 dyne/cm
